Test results as given in paper PMC12586182 (Frontiers in Oncology, 2025).

Tests used:
Assay in all cases: Kinase panel profiling at 1 µmol/L (mobility shift assay, Carna)
Assay type in all cases: biochemical
Conditions in all cases: 1 µmol/L of BTK inhibitor
[1] = biological target: T1, CDK2/CycE1 (Homo sapiens, UniProt P24941)
T1 construct: purchased Carna Biosciences

[2] = biological target: T2, DYRK3 (Homo sapiens, UniProt O43781)
T2 construct: purchased Carna Biosciences
T2 sequence (O43781 1-588): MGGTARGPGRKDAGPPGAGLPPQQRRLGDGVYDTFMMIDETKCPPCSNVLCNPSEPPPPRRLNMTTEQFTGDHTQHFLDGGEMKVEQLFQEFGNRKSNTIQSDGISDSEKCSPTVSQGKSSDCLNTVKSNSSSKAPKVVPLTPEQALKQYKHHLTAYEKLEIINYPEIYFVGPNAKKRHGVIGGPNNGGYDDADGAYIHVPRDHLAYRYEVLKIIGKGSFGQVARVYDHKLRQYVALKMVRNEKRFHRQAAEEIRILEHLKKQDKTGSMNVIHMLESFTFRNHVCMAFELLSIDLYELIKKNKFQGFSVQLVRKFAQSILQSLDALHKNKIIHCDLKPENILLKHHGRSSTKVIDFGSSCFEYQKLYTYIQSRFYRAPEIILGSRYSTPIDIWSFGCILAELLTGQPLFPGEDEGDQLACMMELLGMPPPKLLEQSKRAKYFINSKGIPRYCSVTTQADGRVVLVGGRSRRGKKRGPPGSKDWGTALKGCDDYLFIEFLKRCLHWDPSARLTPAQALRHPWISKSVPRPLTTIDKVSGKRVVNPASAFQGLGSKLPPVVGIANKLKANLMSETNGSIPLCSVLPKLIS

[3] = biological target: T3, EEF2K (Homo sapiens, UniProt O00418)
T3 construct: purchased Carna Biosciences
T3 sequence (O00418 1-725): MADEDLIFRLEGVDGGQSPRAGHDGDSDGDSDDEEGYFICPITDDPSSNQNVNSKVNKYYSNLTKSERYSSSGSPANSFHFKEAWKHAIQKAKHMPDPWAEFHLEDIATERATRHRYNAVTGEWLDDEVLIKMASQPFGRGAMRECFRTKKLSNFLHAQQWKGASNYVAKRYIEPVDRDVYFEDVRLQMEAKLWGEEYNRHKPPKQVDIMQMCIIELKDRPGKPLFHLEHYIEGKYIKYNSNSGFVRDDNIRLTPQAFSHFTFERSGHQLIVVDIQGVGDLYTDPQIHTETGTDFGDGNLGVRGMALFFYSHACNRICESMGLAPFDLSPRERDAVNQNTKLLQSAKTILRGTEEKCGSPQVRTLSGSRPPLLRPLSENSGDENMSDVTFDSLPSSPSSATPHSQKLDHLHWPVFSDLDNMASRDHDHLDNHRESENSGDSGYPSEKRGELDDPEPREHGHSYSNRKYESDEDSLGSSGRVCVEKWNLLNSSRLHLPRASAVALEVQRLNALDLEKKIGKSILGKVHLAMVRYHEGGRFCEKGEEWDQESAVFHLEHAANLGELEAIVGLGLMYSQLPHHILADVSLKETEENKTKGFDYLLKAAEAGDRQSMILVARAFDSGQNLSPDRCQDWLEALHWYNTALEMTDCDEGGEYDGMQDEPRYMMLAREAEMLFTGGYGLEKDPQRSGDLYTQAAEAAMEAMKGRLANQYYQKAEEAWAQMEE

[4] = biological target: T4, PAK5 (Homo sapiens, UniProt Q9P286)
T4 construct: purchased Carna Biosciences
T4 sequence (Q9P286 whole entry): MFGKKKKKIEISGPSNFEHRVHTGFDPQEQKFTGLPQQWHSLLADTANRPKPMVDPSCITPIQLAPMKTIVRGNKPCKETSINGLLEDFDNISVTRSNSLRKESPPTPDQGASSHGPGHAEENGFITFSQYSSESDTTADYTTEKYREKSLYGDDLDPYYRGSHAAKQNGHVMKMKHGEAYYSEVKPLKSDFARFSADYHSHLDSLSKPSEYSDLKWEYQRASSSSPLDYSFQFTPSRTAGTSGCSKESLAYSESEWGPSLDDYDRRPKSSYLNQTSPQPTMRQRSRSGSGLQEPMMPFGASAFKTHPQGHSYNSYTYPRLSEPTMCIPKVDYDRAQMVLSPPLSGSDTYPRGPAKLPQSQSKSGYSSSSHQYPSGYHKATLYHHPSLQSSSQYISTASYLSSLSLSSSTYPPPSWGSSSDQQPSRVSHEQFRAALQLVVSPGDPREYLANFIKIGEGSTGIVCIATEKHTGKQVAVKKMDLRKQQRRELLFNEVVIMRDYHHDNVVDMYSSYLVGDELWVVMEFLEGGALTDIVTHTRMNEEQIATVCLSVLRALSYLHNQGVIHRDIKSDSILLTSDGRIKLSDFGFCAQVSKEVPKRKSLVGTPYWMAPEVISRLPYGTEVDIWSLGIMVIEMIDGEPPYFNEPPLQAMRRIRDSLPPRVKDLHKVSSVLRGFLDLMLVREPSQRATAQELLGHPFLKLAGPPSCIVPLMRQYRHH

[5] = biological target: T5, TAOK2 (Homo sapiens, UniProt Q9UL54)
T5 construct: purchased Carna Biosciences
T5 sequence (Q9UL54 1-1235): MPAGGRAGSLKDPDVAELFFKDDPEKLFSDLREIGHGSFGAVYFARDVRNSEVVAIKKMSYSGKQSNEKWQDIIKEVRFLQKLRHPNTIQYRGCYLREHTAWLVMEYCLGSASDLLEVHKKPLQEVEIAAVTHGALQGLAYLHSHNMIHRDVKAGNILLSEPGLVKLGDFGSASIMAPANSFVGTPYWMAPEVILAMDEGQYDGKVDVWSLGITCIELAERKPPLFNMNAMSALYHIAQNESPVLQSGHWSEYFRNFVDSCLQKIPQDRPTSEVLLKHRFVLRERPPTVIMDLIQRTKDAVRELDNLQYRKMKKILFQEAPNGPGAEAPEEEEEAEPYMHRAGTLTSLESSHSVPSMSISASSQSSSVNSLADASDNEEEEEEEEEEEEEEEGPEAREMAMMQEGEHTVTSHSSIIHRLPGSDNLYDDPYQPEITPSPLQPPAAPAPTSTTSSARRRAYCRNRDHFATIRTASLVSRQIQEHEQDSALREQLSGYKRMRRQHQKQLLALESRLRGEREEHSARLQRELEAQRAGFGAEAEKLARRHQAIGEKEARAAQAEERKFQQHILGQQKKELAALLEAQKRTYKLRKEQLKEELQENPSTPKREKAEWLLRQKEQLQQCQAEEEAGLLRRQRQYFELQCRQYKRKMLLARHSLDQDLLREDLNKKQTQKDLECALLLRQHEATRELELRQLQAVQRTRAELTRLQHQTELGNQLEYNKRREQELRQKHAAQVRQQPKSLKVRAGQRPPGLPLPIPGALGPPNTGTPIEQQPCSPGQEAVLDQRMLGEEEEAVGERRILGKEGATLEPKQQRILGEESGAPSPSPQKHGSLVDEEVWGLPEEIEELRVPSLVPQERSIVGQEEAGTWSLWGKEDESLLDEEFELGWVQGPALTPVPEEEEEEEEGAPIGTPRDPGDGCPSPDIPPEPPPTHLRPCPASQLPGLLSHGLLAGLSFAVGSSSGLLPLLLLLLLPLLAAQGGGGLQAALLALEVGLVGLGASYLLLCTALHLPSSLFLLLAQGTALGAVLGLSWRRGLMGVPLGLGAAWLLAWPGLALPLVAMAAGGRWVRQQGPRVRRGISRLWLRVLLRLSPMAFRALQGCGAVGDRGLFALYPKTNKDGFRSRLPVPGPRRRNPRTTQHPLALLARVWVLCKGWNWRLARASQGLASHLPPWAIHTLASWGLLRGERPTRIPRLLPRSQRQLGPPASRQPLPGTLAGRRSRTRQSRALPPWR

## CC#CC(=O)N1CCC[C@H]1c1nc(-c2ccc(C(=O)Nc3ccccn3)cc2)c2c(N)nccn12 [acalabrutinib]
[1]
  Percentage inhibition of kinase enzyme activity: -4.82%
[2]
  Percentage inhibition of kinase enzyme activity: 0.35%
[3]
  Percentage inhibition of kinase enzyme activity: -12.14%
[4]
  Percentage inhibition of kinase enzyme activity: -0.37%
[5]
  Percentage inhibition of kinase enzyme activity: 5.31%

## C=CC(=O)N1CCC[C@@H](n2nc(-c3ccc(Oc4ccccc4)cc3)c3c(N)ncnc32)C1 [ibrutinib]
[1]
  Percentage inhibition of kinase enzyme activity: -8.27%
[2]
  Percentage inhibition of kinase enzyme activity: -3.93%
[3]
  Percentage inhibition of kinase enzyme activity: 1.15%
[4]
  Percentage inhibition of kinase enzyme activity: 12.42%
[5]
  Percentage inhibition of kinase enzyme activity: 5.25%

## O=C(c1ccc(Oc2ccccc2)cc1Cl)c1c[nH]c2ncnc(N[C@@H]3CC[C@@H](CO)OC3)c12 [nemtabrutinib]
[1]
  Percentage inhibition of kinase enzyme activity: -17.66%
[2]
  Percentage inhibition of kinase enzyme activity: -5.63%
[3]
  Percentage inhibition of kinase enzyme activity: 0.24%
[4]
  Percentage inhibition of kinase enzyme activity: 66.81%
[5]
  Percentage inhibition of kinase enzyme activity: 41.31%

## COc1ccc(F)cc1C(=O)NCc1ccc(-c2nn([C@@H](C)C(F)(F)F)c(N)c2C(N)=O)cc1 [pirtobrutinib]
[1]
  Percentage inhibition of kinase enzyme activity: -41.48%
[2]
  Percentage inhibition of kinase enzyme activity: 7.54%
[3]
  Percentage inhibition of kinase enzyme activity: -0.12%
[4]
  Percentage inhibition of kinase enzyme activity: -1.30%
[5]
  Percentage inhibition of kinase enzyme activity: 1.74%
